Test results from the NIST ThermoML archive (doi:10.1021/acs.jced.5b00367).
Values joined by “and” are separate entries in the source; they are usually repeats but may differ in a detail not shown here. Equal entries are not always repeated.

Assay: wn = mass fraction of the nth substance listed
Conditions: 101 kPa, Liquid, Alternating current cell with electrodes, w1 = 0.01

CCCCCCCCCCCC[N+](CC)(CC)CCCCCCCCCCCC.[Br-] [didodecyldiethylammonium bromide] + O
Conditions | electrical conductivity
315.45 K | 0.0223 S/m
315.55 K | 0.0224 S/m
315.65 K | 0.0224 S/m
315.75 K | 0.0226 S/m
315.85 K | 0.0227 S/m
315.95 K | 0.0228 S/m
316.05 K | 0.0228 S/m
316.15 K | 0.023 S/m
316.25 K | 0.023 S/m
316.35 K | 0.0231 S/m
316.45 K | 0.0233 S/m
316.55 K | 0.0234 S/m
316.65 K | 0.0236 S/m
316.85 K | 0.0238 S/m
317.05 K | 0.0239 S/m
317.15 K | 0.0242 S/m
317.25 K | 0.0242 S/m
317.35 K | 0.0244 S/m
317.45 K | 0.0245 S/m
317.55 K | 0.0246 S/m
317.65 K | 0.0247 S/m
317.75 K | 0.0249 S/m
317.85 K | 0.0249 S/m
317.95 K | 0.0252 S/m
318.05 K | 0.0253 S/m
318.15 K | 0.0253 S/m
318.25 K | 0.0255 S/m
318.35 K | 0.0257 S/m
318.45 K | 0.0259 S/m
318.55 K | 0.0259 S/m
318.65 K | 0.026 S/m
318.75 K | 0.0262 S/m
318.85 K | 0.0263 S/m
318.95 K | 0.0264 S/m
319.05 K | 0.0265 S/m
319.15 K | 0.0266 S/m
319.25 K | 0.0268 S/m
319.35 K | 0.027 S/m
319.45 K | 0.0271 S/m
319.55 K | 0.0272 S/m
319.65 K | 0.0273 S/m
319.75 K | 0.0275 S/m
319.85 K | 0.0276 S/m
319.95 K | 0.0277 S/m
320.05 K | 0.0278 S/m
320.15 K | 0.028 S/m
320.25 K | 0.0282 S/m
320.35 K | 0.0283 S/m
320.45 K | 0.0283 S/m
320.55 K | 0.0286 S/m
320.65 K | 0.0288 S/m
320.75 K | 0.0289 S/m
320.85 K | 0.029 S/m
320.95 K | 0.0292 S/m
321.05 K | 0.0293 S/m
321.15 K | 0.0294 S/m
321.25 K | 0.0296 S/m
321.35 K | 0.0298 S/m
321.45 K | 0.03 S/m
321.55 K | 0.0301 S/m
321.65 K | 0.0303 S/m
321.75 K | 0.0304 S/m
321.85 K | 0.0306 S/m
321.95 K | 0.0308 S/m
322.15 K | 0.031 S/m
322.25 K | 0.0312 S/m
322.35 K | 0.0314 S/m
322.45 K | 0.0315 S/m
322.55 K | 0.0316 S/m
322.65 K | 0.0317 S/m
322.75 K | 0.0318 S/m
322.85 K | 0.0319 S/m
323.35 K | 0.0323 S/m
323.55 K | 0.0324 S/m
323.75 K | 0.0326 S/m
324.05 K | 0.033 S/m
324.25 K | 0.0332 S/m
324.55 K | 0.0334 S/m
324.75 K | 0.0338 S/m
325.05 K | 0.0339 S/m
325.35 K | 0.0344 S/m
325.55 K | 0.0348 S/m
325.85 K | 0.0352 S/m
326.35 K | 0.036 S/m
326.75 K | 0.0368 S/m
327.35 K | 0.0372 S/m
327.95 K | 0.0384 S/m
328.55 K | 0.0392 S/m
328.85 K | 0.0402 S/m
329.55 K | 0.0411 S/m
330.25 K | 0.0426 S/m
331.05 K | 0.0442 S/m
331.85 K | 0.0461 S/m
332.25 K | 0.0461 S/m
332.95 K | 0.0482 S/m
333.35 K | 0.049 S/m
333.55 K | 0.0491 S/m
333.75 K | 0.0491 S/m
333.85 K | 0.0493 S/m
333.95 K | 0.0496 S/m
334.05 K | 0.0501 S/m
334.15 K | 0.0501 S/m
334.25 K | 0.0504 S/m
334.35 K | 0.0505 S/m
334.45 K | 0.0507 S/m
334.55 K | 0.0507 S/m
334.65 K | 0.0509 S/m
334.75 K | 0.0512 S/m
334.85 K | 0.0514 S/m
334.95 K | 0.0514 S/m
335.05 K | 0.0514 S/m
335.15 K | 0.0515 S/m
335.25 K | 0.0519 S/m
335.35 K | 0.052 S/m
335.45 K | 0.0521 S/m
335.65 K | 0.0524 S/m
335.75 K | 0.0526 S/m
335.95 K | 0.0528 S/m
336.05 K | 0.0531 S/m
336.15 K | 0.0531 S/m
336.25 K | 0.0532 S/m
336.35 K | 0.0536 S/m
336.45 K | 0.0537 S/m
336.55 K | 0.0539 S/m
336.65 K | 0.0542 S/m
336.75 K | 0.0544 S/m
336.85 K | 0.0545 S/m
336.95 K | 0.0546 S/m
337.05 K | 0.0548 S/m
337.15 K | 0.0549 S/m
337.25 K | 0.0551 S/m
337.35 K | 0.0552 S/m
337.45 K | 0.0553 S/m
337.55 K | 0.0556 S/m
337.65 K | 0.0556 S/m
337.75 K | 0.0558 S/m
337.85 K | 0.0559 S/m
337.95 K | 0.0563 S/m
338.05 K | 0.0564 S/m
338.15 K | 0.0566 S/m
338.25 K | 0.0568 S/m
338.35 K | 0.0569 S/m
338.45 K | 0.0571 S/m
338.55 K | 0.0573 S/m
338.65 K | 0.0575 S/m
338.75 K | 0.0577 S/m
338.85 K | 0.0578 S/m
338.95 K | 0.058 S/m
339.05 K | 0.0583 S/m
339.15 K | 0.0582 S/m
339.25 K | 0.0585 S/m
339.35 K | 0.0587 S/m
339.45 K | 0.0588 S/m
339.55 K | 0.0591 S/m
339.65 K | 0.0592 S/m
339.75 K | 0.0593 S/m
339.85 K | 0.0596 S/m
339.95 K | 0.0598 S/m
340.05 K | 0.06 S/m
340.15 K | 0.0602 S/m
340.25 K | 0.0605 S/m
340.35 K | 0.0606 S/m
340.45 K | 0.0608 S/m
340.55 K | 0.061 S/m
340.65 K | 0.0612 S/m
340.75 K | 0.0614 S/m
340.85 K | 0.0614 S/m
340.95 K | 0.0616 S/m
341.05 K | 0.062 S/m
341.15 K | 0.062 S/m
341.25 K | 0.0622 S/m
341.35 K | 0.0624 S/m
341.45 K | 0.0625 S/m
341.55 K | 0.0627 S/m
341.65 K | 0.0629 S/m
341.75 K | 0.063 S/m
341.85 K | 0.0633 S/m
341.95 K | 0.0633 S/m
342.05 K | 0.0637 S/m
342.15 K | 0.0639 S/m
342.25 K | 0.064 S/m
342.35 K | 0.0642 S/m
342.45 K | 0.0643 S/m
342.55 K | 0.0645 S/m
342.65 K | 0.0649 S/m
342.75 K | 0.0651 S/m
342.85 K | 0.0654 S/m
342.95 K | 0.0656 S/m
343.05 K | 0.0657 S/m
343.15 K | 0.0658 S/m
343.25 K | 0.0662 S/m
343.35 K | 0.0663 S/m
343.45 K | 0.0663 S/m
343.55 K | 0.0664 S/m
343.65 K | 0.0667 S/m
343.75 K | 0.0667 S/m
343.85 K | 0.067 S/m
343.95 K | 0.0674 S/m
344.05 K | 0.0675 S/m
344.15 K | 0.0674 S/m
344.25 K | 0.0677 S/m
344.35 K | 0.0678 S/m
344.45 K | 0.0679 S/m
344.55 K | 0.0679 S/m
344.65 K | 0.068 S/m
344.75 K | 0.0685 S/m
344.85 K | 0.0686 S/m
344.95 K | 0.0689 S/m
345.05 K | 0.0688 S/m
345.15 K | 0.069 S/m
345.25 K | 0.069 S/m and 0.0692 S/m
345.35 K | 0.0692 S/m
345.45 K | 0.0694 S/m
345.55 K | 0.0697 S/m
345.65 K | 0.0699 S/m
345.75 K | 0.0699 S/m
345.85 K | 0.07 S/m
345.95 K | 0.0701 S/m
346.05 K | 0.0702 S/m
346.15 K | 0.0704 S/m
346.25 K | 0.0707 S/m
346.35 K | 0.0709 S/m
346.45 K | 0.0708 S/m
346.55 K | 0.0709 S/m
346.65 K | 0.0712 S/m
346.75 K | 0.0712 S/m
346.85 K | 0.0713 S/m
